Experimental findings from PubChem BioAssay AID1918934 (Molecular Pharmacology Branch, DTP, NCI, 2023) are described below.

The term viability, T/C denotes the result in the treated group divided by that in the control group, in per cent. As a reminder, the IC50 is the concentration that gives 50% inhibition.

The experiment concerns 292921-168-R-J2-PDC complex spheroid viability. Kind of experiment: Anticancer human tumor 292921-168-R-J2-PDC patient-derived pancreatic carcinoma cell line growth inhibition. As to conditions: for viability, T/C: stronger effect = lower value. The essentials:
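Multicellular complex spheroids of tumor cells with human endothelial cells (HUVEC) and mesenchymal stem cells; the LSD1 inhibitor iadademstat was combined with standard-of-care or investigational agents. Top concentration at or near clinical Cmax, half-log dilutions; final DMSO ≤0.25%.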

Setting [1] is: curve of first compound, second compound 0.1 µM.
The mark [2] stands for this setting: curve of first compound, second compound 0.316 µM.
The mark [3] stands for this setting: curve of first compound, second compound 1 µM.
[4] abbreviates: curve of first compound, second compound 3.16 µM.
Where [5] appears, read: curve of first compound, second compound 10 µM.
Where [6] appears, read: second compound 0.1 µM, first compound 0.0316 µM.
Setting [7] is: second compound 0.1 µM, first compound 0.1 µM.
[8] abbreviates: second compound 0.316 µM, first compound 0.0316 µM.
The mark [9] stands for this setting: second compound 0.316 µM, first compound 0.1 µM.
[10] abbreviates: second compound 1 µM, first compound 0.0316 µM.
Where [11] appears, read: second compound 1 µM, first compound 0.1 µM.
Setting [12] is: second compound 3.16 µM, first compound 0.0316 µM.
The mark [13] stands for this setting: second compound 3.16 µM, first compound 0.1 µM.
Where [14] appears, read: second compound 10 µM, first compound 0.0316 µM.
The mark [15] stands for this setting: second compound 10 µM, first compound 0.1 µM.
The mark [16] stands for this setting: second compound 0.1 µM, first compound 0.000316 µM.
Setting [17] is: second compound 0.1 µM, first compound 0.001 µM.
The mark [18] stands for this setting: second compound 0.1 µM, first compound 0.00316 µM.
Setting [19] is: second compound 0.1 µM, first compound 0.01 µM.
Where [20] appears, read: second compound 0.316 µM, first compound 0.000316 µM.
Where [21] appears, read: second compound 0.316 µM, first compound 0.001 µM.
[22] abbreviates: second compound 0.316 µM, first compound 0.00316 µM.
Where [23] appears, read: second compound 0.316 µM, first compound 0.01 µM.
The mark [24] stands for this setting: second compound 1 µM, first compound 0.000316 µM.
[25] abbreviates: second compound 1 µM, first compound 0.001 µM.
[26] abbreviates: second compound 1 µM, first compound 0.00316 µM.
Where [27] appears, read: second compound 1 µM, first compound 0.01 µM.
Setting [28] is: second compound 3.16 µM, first compound 0.000316 µM.
Where [29] appears, read: second compound 3.16 µM, first compound 0.001 µM.
[30] abbreviates: second compound 3.16 µM, first compound 0.00316 µM.
The mark [31] stands for this setting: second compound 3.16 µM, first compound 0.01 µM.
Setting [32] is: second compound 10 µM, first compound 0.000316 µM.
[33] abbreviates: second compound 10 µM, first compound 0.001 µM.
Setting [34] is: second compound 10 µM, first compound 0.00316 µM.
Where [35] appears, read: second compound 10 µM, first compound 0.01 µM.

Values joined by “and” are separate entries in the source; they are usually repeats but may differ in a detail not shown here. Equal values may be shown once.
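Also: seven day compound exposure before luminescent viability read.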
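For viability, T/C in this document: 100% = DMSO vehicle control wells.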

For the compound `CC1COCCN1c1cc(-c2ccnn2C)c2ccnc(-c3ccn[nH]3)c2n1` (stereo not drawn), the viability, T/C was 15.4% and 15.1% (compound 0.00316 µM); 12.8% and 16.4% (compound 0.01 µM); 12.4% and 13% (compound 0.0316 µM); 16.3% and 14.8% (compound 0.1 µM); 17.2% and 17.7% (compound 0.316 µM); 17.8% and 18.7% (compound 1 µM). Moreover, the IC50 (curve of compound) was below 3.16 nM.

`CC1(C)CCC(CN2CCN(c3ccc(C(=O)NS(=O)(=O)c4ccc(NCC5CCOCC5)c([N+](=O)[O-])c4)c(Oc4cnc5[nH]ccc5c4)c3)CC2)=C(c2ccc(Cl)cc2)C1` + NC1CCC(NC2CC2c2ccccc2)CC1: the IC50 under setting [1] was 1640 nM; the IC50 under setting [2] is 1310 nM; the IC50 under setting [3] stood at 1330 nM; the IC50 under setting [4] worked out at 1260 nM; the IC50 under setting [5] is 1110 nM. Further, the viability, T/C under setting [6] is 63.5%; the viability, T/C under setting [7] is 71.4%; the viability, T/C (second compound 0.1 µM, first compound 0.316 µM) is 73.3%; the viability, T/C (second compound 0.1 µM, first compound 1 µM) was 72.4%; the viability, T/C (second compound 0.1 µM, first compound 3.16 µM) was 23.2%; the viability, T/C (second compound 0.1 µM, first compound 10 µM) is 0.18%. The viability, T/C is 66.3% under setting [8]; 60.1% under setting [9]; 68.2% (second compound 0.316 µM, first compound 0.316 µM); 60.1% (second compound 0.316 µM, first compound 1 µM); 15.8% (second compound 0.316 µM, first compound 3.16 µM); 0.25% (second compound 0.316 µM, first compound 10 µM). The viability, T/C runs as follows: under setting [10], 53%; under setting [11], 58.8%; (second compound 1 µM, first compound 0.316 µM) 65.4%; (second compound 1 µM, first compound 1 µM) 67.6%; (second compound 1 µM, first compound 3.16 µM) 16.2%; (second compound 1 µM, first compound 10 µM) 0.26%. Besides, the viability, T/C is 58.1% under setting [12]; 60.9% under setting [13]; 62.3% (second compound 3.16 µM, first compound 0.316 µM); 59.4% (second compound 3.16 µM, first compound 1 µM); 12.2% (second compound 3.16 µM, first compound 3.16 µM); 0.14% (second compound 3.16 µM, first compound 10 µM). Moreover, the viability, T/C reads like this: under setting [14], 64.2%; under setting [15], 64%; (second compound 10 µM, first compound 0.316 µM) 66.4%; (second compound 10 µM, first compound 1 µM) 53.4%; (second compound 10 µM, first compound 3.16 µM) 12.7%; (second compound 10 µM, first compound 10 µM) 0.23%.

Consider `CC[C@@]1(O)C(=O)OCc2c1cc1n(c2=O)Cc2cc3c(CN(C)C)c(O)ccc3nc2-1`, for which the viability, T/C (compound 0.000316 µM) is 96.8% and 95.3%; the viability, T/C (compound 0.001 µM) was 79.3% and 94.1%; the viability, T/C (compound 0.00316 µM) is 54.4% and 57.1%; the viability, T/C (compound 0.01 µM) was 21.4% and 21.1%; the viability, T/C (compound 0.0316 µM) is 9.12% and 10.3%; the viability, T/C (compound 0.1 µM) was 4.35% and 3.55%. Also, the IC50 (curve of compound) was 3.45 nM and 4.11 nM.

Consider `CC(C)CC(NC(=O)C(Cc1ccccc1)NC(=O)c1cnccn1)B(O)O` (stereo not drawn) + NC1CC1c1ccc(-c2cccc(O)c2)cc1, for which the IC50 under setting [1] was below 0.316 nM; the IC50 under setting [2] is below 0.316 nM; the half-inhibitory concentration (IC50) under setting [3] was below 0.316 nM; the IC50 under setting [4] is below 0.316 nM; the IC50 under setting [5] is below 0.316 nM. Besides, the viability, T/C under setting [16] was 21.2%; the viability, T/C under setting [17] is 1.11%; the viability, T/C under setting [18] is 0.47%; the viability, T/C under setting [19] was 0.39%; the viability, T/C under setting [6] was 0.14%; the viability, T/C under setting [7] was 0.17%. For the same compound, the viability, T/C under setting [20] is 18.8%; the viability, T/C under setting [21] was 1.91%; the viability, T/C under setting [22] was 0.24%; the viability, T/C under setting [23] was 0.18%; the viability, T/C under setting [8] was 0.18%; the viability, T/C under setting [9] was 0.17%. The viability, T/C by setting is: under setting [24], 16.9%; under setting [25], 1.68%; under setting [26], 0.21%; under setting [27], 0.19%; under setting [10], 0.22%; under setting [11], 0.17%. Further, the viability, T/C by setting is: under setting [28], 15.4%; under setting [29], 0.61%; under setting [30], 0.17%; under setting [31], 0.14%; under setting [12], 0.46%; under setting [13], 0.31%. In addition, the viability, T/C reads like this: under setting [32], 12.3%; under setting [33], 0.8%; under setting [34], 0.29%; under setting [35], 0.54%; under setting [14], 0.45%; under setting [15], 0.25%.

Consider `Cn1ncnc1C1c2n[nH]c(=O)c3cc(F)cc(c23)NC1c1ccc(F)cc1` (stereo not drawn) + NC1CCC(NC2CC2c2ccccc2)CC1, for which the IC50 was above 100 nM under setting [1]; 81.4 nM under setting [2]; above 100 nM under setting [3]; 28.4 nM under setting [4]; above 100 nM under setting [5]. Besides, the viability, T/C by setting is: under setting [16], 68.7%; under setting [17], 69%; under setting [18], 64.6%; under setting [19], 66.7%; under setting [6], 66.6%; under setting [7], 53.4%. Also, the viability, T/C under setting [20] was 66.6%; the viability, T/C under setting [21] is 60.4%; the viability, T/C under setting [22] is 62.1%; the viability, T/C under setting [23] was 52.8%; the viability, T/C under setting [8] was 54.2%; the viability, T/C under setting [9] was 49.1%. Also, the viability, T/C reads like this: under setting [24], 67.6%; under setting [25], 60.3%; under setting [26], 54.9%; under setting [27], 52.9%; under setting [10], 47.1%; under setting [11], 55.7%. Also, the viability, T/C under setting [28] is 57.7%; the viability, T/C under setting [29] is 57.1%; the viability, T/C under setting [30] is 58.6%; the viability, T/C under setting [31] was 53%; the viability, T/C under setting [12] was 46.8%; the viability, T/C under setting [13] was 46.6%. Besides, the viability, T/C is 59% under setting [32]; 60.4% under setting [33]; 60.8% under setting [34]; 57% under setting [35]; 50.4% under setting [14]; 54.3% under setting [15].

`Nc1ccccc1NC(=O)c1ccc(CNC(=O)OCc2cccnc2)cc1`: the viability, T/C reads like this: (compound 0.00949 µM) 67.9% and 65.7%; (compound 0.03 µM) 45.2% and 49.2%; (compound 0.0949 µM) 31% and 31.7%; (compound 0.3 µM) 17.2% and 19.8%; (compound 0.949 µM) 4.09% and 5.39%; (compound 3 µM) 0.29% and 0.27%. Under “curve of compound”, the IC50 is 24.9 nM and 28.3 nM.

On to `CCc1c2c(nc3ccc(O)cc13)-c1cc3c(c(=O)n1C2)COC(=O)[C@]3(O)CC`, for which the viability, T/C (compound 0.000949 µM) is 5.38% and 4.72%; the viability, T/C (compound 0.003 µM) is 3.5% and 2.75%; the viability, T/C (compound 0.00949 µM) was 1.25% and 1.31%; the viability, T/C (compound 0.03 µM) was 0.84% and 1.16%; the viability, T/C (compound 0.0949 µM) was 1.07% and 1.04%; the viability, T/C (compound 0.3 µM) was 0.92% and 1.24%. Further, the IC50 (curve of compound) is below 0.949 nM.
